Test results taken from patent US11584747B2, “Substituted pyridopyrimidinonyl compounds useful as T cell activators” (BRISTOL-MYERS SQUIBB COMPANY, priority 2019, dated 2023).
Where two headings read alike, the source gives them in different places.

Assays:
human DGKα = human DGKα (Homo sapiens (Human), UniProt P23743); experiment: DGKα LIPGLO assay (extruded liposome substrate, ADP-Glo luminescence); assay type: biochemical
human DGKζ = human DGKζ (Homo sapiens (Human), UniProt Q13574); experiment: DGKζ LIPGLO assay (extruded liposome substrate, ADP-Glo luminescence); assay type: biochemical
[1] = system: human venous whole blood (IFN-γ); experiment: Human whole blood IFN-γ assay; assay type: cell-based
Procedure: Human venous whole blood (22.5 μL per well), obtained from healthy donors, was pre-treated with compounds for one hour at 37° C. in a humidified 95% air/5% CO2 incubator. The blood was stimulated with 2.5 μL anti-human CD3 and anti-CD28 mAb at a final concentration of 1 μg/mL each for 24 hours at 37° C. IFN-γ in the supernatants was measured using AlphLISA kit (Cat #AL217).

[2] = liposome assay, read-out: DGK alpha LIPGLO IC50
[3] = liposome assay, read-out: DGK zeta LIPGLO IC50
[4] = whole blood, normalized to 3 μM reference compound as 100% activation, read-out: IFN-γ Whole Blood Normalized EC50
[5] = Homo sapiens, whole blood, normalized to 3 μM reference compound as 100% activation, read-out: IFN-γ Whole Blood Normalized EC50
[6] = liposome (LIPGLO) assay, read-out: DGK alpha (liposome assay) IC50
[7] = liposome (LIPGLO) assay, read-out: DGK zeta (liposome assay) IC50
[8] = human whole blood, anti-CD3 plus anti-CD28 stimulation, 24 hours, read-out: IFN-γ Whole Blood EC50

Chain of human DGKζ (Q13574 other isoform, or with tags, fused parts or gaps): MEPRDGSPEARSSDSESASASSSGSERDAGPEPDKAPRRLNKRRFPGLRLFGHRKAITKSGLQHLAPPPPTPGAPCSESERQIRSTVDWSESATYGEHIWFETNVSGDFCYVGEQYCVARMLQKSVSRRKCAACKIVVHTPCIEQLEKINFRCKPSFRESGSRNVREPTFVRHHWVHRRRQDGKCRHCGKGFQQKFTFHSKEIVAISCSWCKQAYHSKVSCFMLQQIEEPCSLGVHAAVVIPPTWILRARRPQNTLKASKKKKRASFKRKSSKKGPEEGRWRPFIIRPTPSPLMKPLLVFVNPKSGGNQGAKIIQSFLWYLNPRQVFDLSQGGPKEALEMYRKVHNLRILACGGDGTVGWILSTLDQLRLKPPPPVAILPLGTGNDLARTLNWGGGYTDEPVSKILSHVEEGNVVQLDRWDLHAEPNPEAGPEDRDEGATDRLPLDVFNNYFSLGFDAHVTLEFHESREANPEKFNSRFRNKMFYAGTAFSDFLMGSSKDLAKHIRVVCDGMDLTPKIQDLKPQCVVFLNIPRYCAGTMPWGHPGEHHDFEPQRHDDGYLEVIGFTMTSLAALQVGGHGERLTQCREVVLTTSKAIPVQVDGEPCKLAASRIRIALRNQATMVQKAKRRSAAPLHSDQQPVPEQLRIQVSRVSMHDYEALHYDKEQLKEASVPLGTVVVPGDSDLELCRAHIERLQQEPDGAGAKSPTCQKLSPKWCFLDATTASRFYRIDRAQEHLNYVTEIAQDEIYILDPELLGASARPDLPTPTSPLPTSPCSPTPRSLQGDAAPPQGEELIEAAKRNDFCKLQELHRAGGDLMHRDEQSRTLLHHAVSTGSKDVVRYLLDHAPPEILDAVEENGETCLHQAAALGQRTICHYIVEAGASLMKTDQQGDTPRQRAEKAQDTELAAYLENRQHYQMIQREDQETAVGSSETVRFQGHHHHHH
Chain of human DGKα (P23743 whole entry, looked up): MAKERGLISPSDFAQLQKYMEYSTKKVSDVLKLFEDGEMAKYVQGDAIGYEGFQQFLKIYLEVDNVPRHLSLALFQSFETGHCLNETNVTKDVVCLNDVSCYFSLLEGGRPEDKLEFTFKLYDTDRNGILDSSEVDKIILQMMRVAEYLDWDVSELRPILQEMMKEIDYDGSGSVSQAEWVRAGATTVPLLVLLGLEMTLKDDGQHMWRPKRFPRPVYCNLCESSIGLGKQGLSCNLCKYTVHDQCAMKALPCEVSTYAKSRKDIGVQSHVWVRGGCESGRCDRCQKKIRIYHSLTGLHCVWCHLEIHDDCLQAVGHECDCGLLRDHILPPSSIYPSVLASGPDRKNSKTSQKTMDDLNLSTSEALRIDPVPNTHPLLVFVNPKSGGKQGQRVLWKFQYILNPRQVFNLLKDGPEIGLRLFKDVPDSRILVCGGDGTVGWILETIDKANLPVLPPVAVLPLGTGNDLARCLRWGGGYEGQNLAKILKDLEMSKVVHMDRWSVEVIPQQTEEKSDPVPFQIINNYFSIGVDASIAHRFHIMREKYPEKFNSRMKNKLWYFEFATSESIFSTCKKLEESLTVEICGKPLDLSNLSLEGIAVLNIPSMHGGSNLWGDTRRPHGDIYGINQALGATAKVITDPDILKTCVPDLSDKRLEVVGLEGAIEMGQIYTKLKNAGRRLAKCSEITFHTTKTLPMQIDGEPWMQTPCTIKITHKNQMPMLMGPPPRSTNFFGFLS

| Compound | IC50 (human DGKα; [2]) [nM] | IC50 (human DGKζ; [3]) [nM] | IC50 (human DGKα; [6]) [nM] | IC50 (human DGKζ; [7]) [nM] | EC50 [1, 8] [nM] | EC50 [1, 4] [nM] | EC50 [1, 5] [nM] |
| --- | --- | --- | --- | --- | --- | --- | --- |
| CC[C@H]1CN(C(C)c2ccc(OCC3CC3)cc2F)[C@H](CC)CN1c1nc(=O)n(C)c2ccc(C#N)nc12 (single isomer, unassigned) [Example 32] | 500 | 31 |  |  |  | 19 |  |
| CC[C@@H]1CN(c2nc(=O)n(C)c3ccc(C#N)nc23)[C@@H](C)CN1C(c1ccc(F)cc1)c1cccc(C(F)(F)F)n1 (single isomer, unassigned) [Example 65] | 1190 | 100 |  |  |  | 360 |  |
| CC(c1ccc(C2CC2)cc1)N1C[C@H](C)N(c2nc(=O)n(C)c3ccc(C#N)nc23)C[C@H]1C (single isomer, unassigned) [Example 4] | 1330 | 760 |  |  |  | 970 |  |
| CC(c1ccc(OC(F)(F)F)cc1)N1C[C@H](C)N(c2nc(=O)n(C)c3ccc(C#N)nc23)C[C@H]1CO (single isomer, unassigned) [Example 184] | 2660 | 45000 |  |  |  | 20000 |  |
| C[C@H]1CN(C(c2ccc(F)cc2)c2ccc(C(F)(F)F)cn2)[C@H](CO)CN1c1nc(=O)n(C)c2ccc(C#N)nc12 (single isomer, unassigned) [Example 181] | 4920 | 12400 |  |  |  | 730 |  |
| CC(c1ccc(C2CC2)cc1F)N1C[C@H](C)N(c2nc(=O)n(C)c3ccc(C#N)nc23)C[C@H]1C (single isomer, unassigned) [Example 169] | 4620 | 2180 |  |  |  | 1330 |  |
| CC[C@@H]1CN(c2nc(=O)n(C)c3ccc(C#N)nc23)[C@@H](CC)CN1Cc1ccc2c(c1)OC(F)(F)O2 [Example 13, 4-((2S,5R)-4-((2,2-difluorobenzo[d][1,3]dioxol-5-yl)methyl)-2,5-diethylpiperazin-1-yl)-1-methyl-2-oxo-1,2-dihydropyrido[3,2-d]pyrimidine-6-carbonitrile] | 700 | 230 |  |  |  |  | 2120 |
| Cc1ccc(C(c2ccc(C)cc2)N2C[C@H](C)N(c3nc(=O)n(C)c4ccc(C#N)nc34)C[C@H]2C)cc1 [Example 125] | 740 | 990 |  |  |  |  | 500 |
| C[C@@H]1CN(c2nc(=O)n(C)c3ccc(C#N)nc23)[C@@H](C)CN1C(c1ccc(F)cc1)c1ccc(C#N)cc1 (stereo partly drawn) [Example 375, 4-((2S,5R)-4-((4-cyanophenyl)(4-fluorophenyl)methyl)-2,5-dimethylpiperazin-1-yl)-1-methyl-2-oxo-1,2-dihydropyrido[3,2-d]pyrimidine-6-carbonitrile] |  |  | 1390 | 6050 | 2160 |  |  |
| CC[C@@H]1CN(c2nc(=O)n(C)c3ccc(C#N)nc23)[C@@H](C)CN1C(C)c1ccc(OCC2CC2)cc1F (single isomer, unassigned) [Example 70] | 840 | 1410 |  |  |  | 1440 |  |
| CC(c1ccc(OC(F)(F)F)c(F)c1)N1C[C@H](C)N(c2nc(=O)n(C)c3ccc(C#N)nc23)C[C@H]1C (single isomer, unassigned) [Example 161] | 2100 | 1210 |  |  |  | 4010 |  |
| CC(c1ccc(OC(C)(C)C#N)cc1)N1C[C@H](C)N(c2nc(=O)n(C)c3ccc(C#N)nc23)C[C@H]1C (stereo partly drawn) [Example 376, 4-((2S,5R)-4-(1-(4-((2-cyanopropan-2-yl)oxy)phenyl)ethyl)-2,5-dimethylpiperazin-1-yl)-1-methyl-2-oxo-1,2-dihydropyrido[3,2-d]pyrimidine-6-carbonitrile] |  |  | 30 | 97 | 58 |  |  |
| C[C@@H]1CN(c2nc(=O)n(C)c3ccc(C#N)nc23)[C@@H](C)CN1C(c1ccc(F)cc1)c1csc(C(F)(F)F)n1 (single isomer, unassigned) [Example 170] | 1610 | 330 |  |  |  | 96 |  |
| CC(c1ccc2c(c1)OC(F)(F)O2)N1C[C@H](C)N(c2nc(=O)n(C)c3ccc(C#N)nc23)C[C@H]1C (single isomer, unassigned) [Example 167] | 17800 | 2380 |  |  |  | 3850 |  |
| C[C@@H]1CN(c2nc(=O)n(C)c3ccc(C#N)nc23)[C@@H](C)CN1Cc1ccc(F)c(F)c1 [Example 133, 4-((2 S,5R)-4-(3,4-difluorobenzyl)-2,5-dimethylpiperazin-1-yl)-1-methyl-2-oxo-1,2-dihydropyrido[3,2-d]pyrimidine-6-carbonitrile] | 530 | 240 |  |  |  |  | 710 |
| CC[C@H]1CN(C(C)c2ccc(C3CC3)cc2F)[C@H](CC)CN1c1nc(=O)n(C)c2ccc(C#N)nc12 (single isomer, unassigned) [Example 41] | 2270 | 1080 |  |  |  | 470 |  |

More lines, main results first:

| IC50 (human DGKα; [2]) [nM] | IC50 (human DGKζ; [3]) [nM] | IC50 (human DGKα; [6]) [nM] | IC50 (human DGKζ; [7]) [nM] | EC50 [1, 8] [nM] | Compound | EC50 [1, 4] [nM] | EC50 [1, 5] [nM] |
| --- | --- | --- | --- | --- | --- | --- | --- |
| 29 | 17 |  |  |  | [2H]C([2H])([2H])Oc1ccc(C(C)N2C[C@H](CC)N(c3nc(=O)n(C)c4ccc(C#N)nc34)C[C@H]2CC)cc1 (single isomer, unassigned) [Example 190] | 9 |  |
| 210 | 14 |  |  |  | CC[C@@H]1CN(c2nc(=O)n(C)c3ccc(C#N)nc23)[C@@H](C)CN1C(C)c1ccc(OCC2CC2)cc1F (single isomer, unassigned) [Example 69] | 33 |  |
| 300 | 23 |  |  |  | CCC(c1ccc2c(c1)OC(F)(F)O2)N1C[C@H](C)N(c2nc(=O)n(C)c3ccc(C#N)nc23)C[C@H]1CC (single isomer, unassigned) [Example 79] |  | 300 |
| 390 | 850 |  |  |  | CC[C@@H]1CN(c2nc(=O)n(C)c3ccc(C#N)nc23)[C@@H](C)CN1C(C)c1ccc(OC(F)(F)F)cc1 (single isomer, unassigned) [Example 49] | 2340 |  |
| 160 | 440 |  |  |  | CC[C@H]1CN(C(c2ccc(F)cc2)c2ccc(C(F)(F)F)cn2)[C@H](C)CN1c1nc(=O)n(C)c2ccc(C#N)nc12 (stereo partly drawn) [Example 114, 4-((2S,5R)-2-ethyl-4-((4-fluorophenyl)(5-(trifluoromethyl)pyridin-2-yl)methyl)-5-methylpiperazin-1-yl)-1-methyl-2-oxo-1,2-dihydropyrido[3,2-d]pyrimidine-6-carbonitrile] | 470 |  |
| 28 | 310 |  |  |  | CC[C@@H]1CN(c2nc(=O)n(C)c3ccc(C#N)nc23)[C@@H](C)CN1C(c1ccc(F)cc1)c1ccccn1 (single isomer, unassigned) [Example 87] | 440 |  |
| 170 | 36 |  |  |  | CC[C@@H]1CN(c2nc(=O)n(C)c3ccc(C#N)nc23)[C@@H](C)CN1C(c1ccc(F)cc1)c1cnc(C2CC2)s1 (single isomer, unassigned) [Example 103] | 94 |  |
| 250 | 960 |  |  |  | CC[C@@H]1CN(c2nc(=O)n(C)c3ccc(C#N)nc23)[C@@H](C)CN1C(c1ccc(F)cc1)c1ccon1 (single isomer, unassigned) [Example 74] | 430 |  |
| 260 | 100 |  |  |  | CC(c1ccc(F)c(F)c1)N1C[C@H](C)N(c2nc(=O)n(C)c3ccc(C#N)nc23)C[C@H]1C (single isomer, unassigned) [Example 148] | 570 |  |
| 30 | 28 |  |  |  | CC[C@@H]1CN(c2nc(=O)n(C)c3ccc(C#N)nc23)[C@@H](C)CN1C(C)c1ccc(C#N)cc1 (single isomer, unassigned) [Example 60] | 23 |  |
| 39 | 130 |  |  |  | C[C@@H]1CN(c2nc(=O)n(C)c3ccc(C#N)nc23)[C@@H](C)CN1C(c1ccc(F)cc1)c1nc(C2CC2)no1 (single isomer, unassigned) [Example 106] | 240 |  |
| 386 | 1010 |  |  |  | CC[C@H]1CN(C(C)c2ccc(C(F)(F)F)cc2)[C@H](CC)CN1c1nc(=O)n(C)c2ccc(C#N)nc12 (single isomer, unassigned) [Example 21] | 2850 |  |
| 110 | 76 |  |  |  | CC[C@@H]1CN(c2nc(=O)n(C)c3ccc(C#N)nc23)[C@@H](C)CN1C(c1ccc(F)cc1)c1ccccn1 (single isomer, unassigned) [Example 88] | 48 |  |
| 56 | 1150 |  |  |  | C[C@@H]1CN(c2nc(=O)n(C)c3ccc(C#N)nc23)[C@@H](C)CN1C(c1ccc(F)cc1)c1ccon1 (single isomer, unassigned) [Example 162] | 1850 |  |
| 340 | 760 |  |  |  | CC[C@@H]1CN(c2nc(=O)n(C)c3ccc(C#N)nc23)[C@@H](C)CN1C(C)c1ccc(C2CC2)cc1 (single isomer, unassigned) [Example 64] | 690 |  |
| 320 | 2140 |  |  |  | CC[C@H]1CN(C(C)c2ccc(OC)cc2)[C@H](CC)CN1c1nc(=O)n(C)c2ccc(C#N)nc12 (single isomer, unassigned) [Example 17] |  | 2890 |
| 52 | 380 |  |  |  | CC[C@@H]1CN(c2nc(=O)n(C)c3ccc(C#N)nc23)[C@@H](C)CN1C(C)c1ccc(C#N)cc1 (single isomer, unassigned) [Example 61] | 4500 |  |
| 190 | 110 |  |  |  | CC(c1ccc(C2CC2)cc1)N1C[C@H](C)N(c2nc(=O)n(C)c3ccc(C#N)nc23)C[C@H]1C (single isomer, unassigned) [Example 3] | 31 |  |
